Key:
Format in all cases: in vivo
[1] = tested on: Alternaria brassicae; experiment: Alternaria brassicae (protective action) on cabbage seedlings; conditions: 50 ppm spray, cabbage cv. Vorbote, evaluated 2-5 days after infection, read-out: action (leaf area infected with Alternaria brassicae as a percentage compared with the infected, untreated control)
Protocol: Alternaria brassicae (Protective Action)
4 cabbage seedlings, cv. “Vorbote”, in the 6-leaf stage, distributed to 2 pots, are sprayed thoroughly with a spray mixture prepared with a wettable powder of the active substance (with 50 ppm of active ingredient) and subsequently cultured further in a controlled-environment cabinet at 19° C. and with 16 hours illumination per day. Two days after the treatment, the plants are infected by spraying with an aqueous conidia suspension (approx. 30,000 conidia/ml). The cabbage plants are then incubated at 24-26° C., under dew-point conditions and with a photoperiod of 16 hours. The test is evaluated 2-5 days after the infection by determining the leaf area infected with Alternaria brassicae as a percentage compared with the infected, untreated control.

[2] = tested on: Cercospora arachidicola; experiment: Action against Cercospora arachidicola on peanut plants (curative action); conditions: Mycosphaerella arachidis, 288 h, 160 ppm spray, peanut cv. Tamnut, evaluated 12 days after treatment, read-out: action (leaf area infected with Cercospora arachidicola as a percentage compared with the infected control)
Protocol: Action Against Cercospora arachidicola on Peanut Plants (Curative Action)
Two peanut plants cv. “Tamnut” in the 4-leaf stage are sprayed with a conidia suspension of Cercospora arachidicola (approx. 200,000 conidia/ml) and subsequently incubated at 25-26° C. and under dew-point conditions. After two days, the plants are sprayed thoroughly from all sides with a spray mixture prepared with a wettable powder of the active substance (with 160 ppm of active ingredient). The treated plants are subsequently incubated in a controlled-environment cabinet under the following conditions: 25-27° C. and 80% atmospheric humidity during the day, 20° C. and dew-point conditions during the night; the photoperiod in each case is 16 hours. 12 days after the treatment, the test is evaluated by determining the leaf area infected with Cercospora arachidicola as a percentage compared with the infected control.

[3] = tested on: Venturia inaequalis; experiment: Venturia inaequalis (curative action) on apple seedlings; conditions: 50 ppm spray, apple cv. Golden Delicious, evaluated 9-10 days after treatment, read-out: action (leaf area covered in Venturia inaequalis as a percentage compared with the infected control)
Protocol: Venturia inaequalis (Curative Action)
Two apple seedlings cv. “Golden Delicious” are sprayed with a conidia suspension of Venturia inaequalis and subsequently incubated at 18° C. and under dew-point conditions. After 24 hours, the plants are sprayed thoroughly from all sides with a spray mixture prepared with a wettable powder of the active substance (with 50 ppm of active ingredient). The treated apple seedlings are subsequently cultured further in the greenhouse. 9-10 days after the treatment, the test is evaluated by determining the leaf area covered in Venturia inaequalis as a percentage compared with the infected control.

[4] = tested on: Plasmopara viticola; experiment: Plasmopara viticola (protective action) on grapevine seedlings; conditions: 144 h, 160 ppm spray, grapevine cv. Riesling x Sylvaner, day 6 after infection, read-out: action (leaf area infected with Plasmopara viticola as a percentage compared with the infected, untreated control)
Protocol: Plasmopara viticola (Protective Action)
2 grapevine seedlings cv. Riesling×Sylvaner, each in the 4-5 leaf stage, are sprayed thoroughly from all sides with a spray mixture prepared with a wettable powder of the active substance (with 160 ppm of active ingredient) and subsequently cultured further in a controlled-environment cabinet at 17° C., 70-80% relative atmospheric humidity and with a photoperiod of 16 hours. After 6 days, the test plants are infected by spraying the undersides of the leaves with zoosporangia of Plasmopara viticola, suspended in distilled water (approx. 300,000 sporangia/ml). The grapevine plants are then incubated as follows: 1 day at 22° C. and under dew-point conditions in the dark and subsequently 4 days in the greenhouse. To induce fructification of Plasmopara viticola, the grapevines are transferred to a controlled-environment cabinet with dew-point conditions at 22° C. on day 5 after the infection.
The tests are carried out in each case on day 6 after the infection by determining the leaf area infected with Plasmopara viticola as a percentage compared with the infected, untreated control.

[5] = tested on: Erysiphe graminis; experiment: Erysiphe graminis (protective action) on wheat seedlings; conditions: Blumeria graminis, 168 h, 160 ppm spray, wheat cv. Lita, evaluated 7 days after infection, read-out: action (leaf area covered in Erysiphe graminis as a percentage compared with the infected control)
Protocol: Erysiphe graminis (Protective Action)
30-40 wheat seedlings cv. “Lita” in the 1-leaf stage (distributed to two pots of ø7 cm) are sprayed thoroughly with a spray mixture prepared with a wettable powder of the active substance (with 160 ppm of active ingredient) and then cultured further in the greenhouse. One day after the treatment, the plants are dusted with conidia of Erysiphe graminis. The test is evaluated 7 days after the infection by determining the size of the leaf area covered in Erysiphe graminis as a percentage compared with the infected control.
Untreated, but infected control plants show a level of infection with Erysiphe of 100%.

`CO/N=C(\C(=O)OC)c1ccccc1CON=C(c1ccccc1)C1CC1` [Compound 36] gave a pest or weed control at 50 ppm [1] of over 75%, a pest or weed control at 160 ppm [2] of over 75% and a pest or weed control at 50 ppm [3] of over 75%. It also gave a pest or weed control at 160 ppm [4] of over 75%.
`CO/N=C(\C(=O)OC)c1ccccc1CON=C(C)c1ccccc1` [Compound 134] showed a pest or weed control at 50 ppm [3] of over 75%.
For `CO/N=C(\C(=O)OC)c1ccccc1CON=C(C)c1ccc([N+](=O)[O-])cc1` [Compound 25], the pest or weed control at 160 ppm [5] was over 75%, the pest or weed control at 50 ppm [1] was over 75% and the pest or weed control at 160 ppm [2] was over 75%.
`CO/N=C(\C(=O)OC)c1ccccc1CON=C(c1ccccc1)C(F)(F)F` [Compound 27] was tested, and the pest or weed control at 160 ppm [5] was over 75%.
For `CO/N=C(\C(=O)OC)c1ccccc1CON=C(c1ccc2ccccc2c1)C(F)(F)F` [Compound 143], the pest or weed control at 50 ppm [1] was over 75%.
`CO/N=C(\C(=O)OC)c1ccccc1CON=C(C)c1cccc(SC#N)c1` [Compound 71] was tested, and the pest or weed control at 160 ppm [2] was over 75%.
With `CCOc1cc(C(C)=NOCc2ccccc2/C(=N/OC)C(=O)OC)ccc1OC` [Compound 85] the pest or weed control at 50 ppm [3] was over 75%.
With `CO/N=C(\C(=O)OC)c1ccccc1CON=C(c1ccc(Cl)cc1)C(F)(F)F` [Compound 142] the pest or weed control at 50 ppm [3] was over 75%.
`CO/N=C(\C(=O)OC)c1ccccc1CON=C(c1cccc(Cl)c1)C1CC1` [Compound 145] gave a pest or weed control at 160 ppm [2] of over 75%.
With `CO/N=C(\C(=O)OC)c1ccccc1CON=C(C)c1cc(Cl)cc(Cl)c1` [Compound 136] the pest or weed control at 50 ppm [1] was over 75%.
`CO/N=C(\C(=O)OC)c1ccccc1CON=C(c1cccc(C(F)(F)F)c1)C(F)(F)F` [Compound 39] was tested, and the pest or weed control at 160 ppm [5] was over 75%.
For `CO/N=C(\C(=O)OC)c1ccccc1CON=C(C)c1ccc(OC)cc1` [Compound 19], the pest or weed control at 160 ppm [2] was over 75% and the pest or weed control at 50 ppm [3] was over 75%.
`CCCC(=NOCc1ccccc1/C(=N/OC)C(=O)OC)c1ccccc1` [Compound 18] was tested, and the pest or weed control at 160 ppm [5] was over 75%.
For `COCc1cc(C(C)=NOCc2ccccc2/C(=N/OC)C(=O)OC)ccc1OC` [Compound 83], the pest or weed control at 160 ppm [2] was over 75% and the pest or weed control at 50 ppm [3] was over 75%.
With `CO/N=C(\C(=O)OC)c1ccccc1CON=C(C)Cc1ccc2c(c1)OCO2` [Compound 54] the pest or weed control at 50 ppm [1] was over 75% and the pest or weed control at 50 ppm [3] was over 75%.
In the case of `C=CCOc1cccc(C(C)=NOCc2ccccc2/C(=N/OC)C(=O)OC)c1` [Compound 66], the pest or weed control at 160 ppm [2] is reported as over 75% and the pest or weed control at 50 ppm [3] is reported as over 75%.
`C#CCOc1cccc(C(C)=NOCc2ccccc2/C(=N/OC)C(=O)OC)c1` [Compound 67] gave a pest or weed control at 50 ppm [1] of over 75%.
`CO/N=C(\C(=O)OC)c1ccccc1CON=C(c1cccc(Cl)c1)C(F)(F)F` [Compound 141] was tested, and the pest or weed control at 160 ppm [5] was over 75%.
Work on `CO/N=C(\C(=O)OC)c1ccccc1CON=C(SC)c1cccc(C(F)(F)F)c1` [Compound 126] yielded a pest or weed control at 160 ppm [5] of over 75%.
With `CO/N=C(\C(=O)OC)c1ccccc1CON=C(C)c1ccc(OC)c(CSC)c1` [Compound 49] the pest or weed control at 160 ppm [2] was over 75% and the pest or weed control at 50 ppm [3] was over 75%.
For `CO/N=C(\C(=O)OC)c1ccccc1CON=C(c1ccc(F)cc1)C1CC1` [Compound 89], the pest or weed control at 160 ppm [5] was over 75%.
Molecule `CO/N=C(\C(=O)OC)c1ccccc1CON=C(C)c1ccc(OC(F)(F)C(F)(F)F)cc1` [Compound 106] has a pest or weed control at 50 ppm [3] of over 75%.
Molecule `CO/N=C(\C(=O)OC)c1ccccc1CON=C(C)C(=O)c1ccc2c(c1)OCO2` [Compound 64] has a pest or weed control at 50 ppm [3] of over 75%.
With `CCC(=NOCc1ccccc1/C(=N/OC)C(=O)OC)c1ccccc1` [Compound 28] the pest or weed control at 50 ppm [1] was over 75%, the pest or weed control at 50 ppm [3] was over 75% and the pest or weed control at 160 ppm [4] was over 75%.
For `CO/N=C(\C(=O)OC)c1ccccc1CON=C(C)C(=O)c1cccc([N+](=O)[O-])c1` [Compound 130], the pest or weed control at 50 ppm [1] was over 75% and the pest or weed control at 160 ppm [2] was over 75%.
In the case of `CO/N=C(\C(=O)OC)c1ccccc1CON=C(C)C(=O)c1cccc(Br)c1` [Compound 129], the pest or weed control at 160 ppm [2] is reported as over 75% and the pest or weed control at 160 ppm [4] is reported as over 75%.
`CO/N=C(\C(=O)OC)c1ccccc1CON=C(SC)c1ccccc1` [Compound 124] showed a pest or weed control at 50 ppm [1] of over 75% and a pest or weed control at 50 ppm [3] of over 75%.
`CO/N=C(\C(=O)OC)c1ccccc1CON=C(C)c1ccc(Cl)c(Cl)c1` [Compound 13] showed a pest or weed control at 160 ppm [5] of over 75%, a pest or weed control at 50 ppm [1] of over 75% and a pest or weed control at 160 ppm [2] of over 75%. It also gave a pest or weed control at 50 ppm [3] of over 75%.
`CO/N=C(\C(=O)OC)c1ccccc1CON=C(c1ccc2c(c1)OCO2)C1CC1` [Compound 41] was tested, and the pest or weed control at 160 ppm [2] was over 75% and the pest or weed control at 160 ppm [4] was over 75%.
`CO/N=C(\C(=O)OC)c1ccccc1CON=C(C)c1ccc2cc(OC)ccc2c1` [Compound 119] was tested, and the pest or weed control at 160 ppm [5] was over 75%.
Work on `CO/N=C(\C(=O)OC)c1ccccc1CON=CC(=O)c1cccs1` [Compound 105] yielded a pest or weed control at 160 ppm [5] of over 75%, a pest or weed control at 50 ppm [1] of over 75% and a pest or weed control at 50 ppm [3] of over 75%.
Molecule `CO/N=C(\C(=O)OC)c1ccccc1CON=C(C)c1cccc(OCC#N)c1` [Compound 92] has a pest or weed control at 50 ppm [1] of over 75%.
For `CO/N=C(\C(=O)OC)c1ccccc1CON=C(C)c1cccc([N+](=O)[O-])c1` [Compound 26], the pest or weed control at 50 ppm [1] was over 75% and the pest or weed control at 160 ppm [2] was over 75%.
In the case of `CO/N=C(\C(=O)OC)c1ccccc1CON=C(C)c1cccc(OCC2CC2)c1` [Compound 68], the pest or weed control at 160 ppm [2] is reported as over 75%.
`CO/N=C(\C(=O)OC)c1ccccc1CON=C(C)c1cccc(C#N)c1` [Compound 70] showed a pest or weed control at 160 ppm [5] of over 75%.
In the case of `CO/N=C(\C(=O)OC)c1ccccc1CON=C(C)C(C)=CC=C(C)CCC=C(C)C` [Compound 23], the pest or weed control at 160 ppm [5] is reported as over 75% and the pest or weed control at 50 ppm [1] is reported as over 75%.
For `CO/N=C(\C(=O)OC)c1ccccc1CON=C(C)c1cccs1` [Compound 14], the pest or weed control at 50 ppm [1] was over 75%, the pest or weed control at 160 ppm [2] was over 75% and the pest or weed control at 50 ppm [3] was over 75%.
`CO/N=C(\C(=O)OC)c1ccccc1CON=C(SC)c1ccc(Cl)cc1` [Compound 125] was tested, and the pest or weed control at 160 ppm [4] was over 75%.
In the case of `CO/N=C(\C(=O)OC)c1ccccc1CON=C(c1ccc2ccccc2c1)C1CC1` [Compound 150], the pest or weed control at 50 ppm [1] is reported as over 75% and the pest or weed control at 160 ppm [4] is reported as over 75%.
`CO/N=C(\C(=O)OC)c1ccccc1CON=C(c1ccc(Oc2ccccc2)cc1)C1CC1` [Compound 149] showed a pest or weed control at 160 ppm [5] of over 75%.
`CO/N=C(\C(=O)OC)c1ccccc1CON=C(OC)c1ccc(Cl)cc1` [Compound 127] was tested, and the pest or weed control at 160 ppm [5] was over 75%.
`CO/N=C(\C(=O)OC)c1ccccc1CON=C(C)C(C)Oc1ccccc1` (centres unmarked) [Compound 37] showed a pest or weed control at 160 ppm [5] of over 75%.
Molecule `CO/N=C(\C(=O)OC)c1ccccc1CON=C(C)c1cc(OC)c(OC)c(OC)c1` [Compound 20] has a pest or weed control at 50 ppm [1] of over 75% and a pest or weed control at 50 ppm [3] of over 75%.
For `CO/N=C(\C(=O)OC)c1ccccc1CON=C(c1cccc(Br)c1)C1CC1` [Compound 147], the pest or weed control at 50 ppm [3] was over 75% and the pest or weed control at 160 ppm [4] was over 75%.
`CO/N=C(\C(=O)OC)c1ccccc1CON=C(C)c1ccc(OC)c([N+](=O)[O-])c1` [Compound 82] gave a pest or weed control at 50 ppm [3] of over 75% and a pest or weed control at 160 ppm [4] of over 75%.
For `CO/N=C(\C(=O)OC)c1ccccc1CON=C(C)c1cccc(F)c1` [Compound 40], the pest or weed control at 160 ppm [5] was over 75% and the pest or weed control at 160 ppm [2] was over 75%.
`CO/N=C(\C(=O)OC)c1ccccc1CON=C(C)c1cc(C)ccc1F` [Compound 137] was tested, and the pest or weed control at 160 ppm [5] was over 75%.

Reference: patent publication US6355634B1, “Aromatic compounds” (Bayer Aktiengesellschaft, priority 1990, dated 2002)
